Data published in US8106055B2, “Substituted amide compounds” (Gruenenthal GmbH, priority 2007, dated 2012).

Legend:
human μ opiate receptor = molecular target: T1, human μ opiate receptor (Homo sapiens, UniProt P35372); experiment: Affinity for the human μ opiate receptor ([3H]-naloxone displacement, CHO-K1 receptor membrane preparation, SPA); type: binding; settings: test concentration of 1 μM; for inhibition at 1 µM: read-out: μ (binding on the μ opioid receptor, % inhibition)
T1 construct: purchased PerkinElmer Life Sciences, Zaventem, Belgium RB-HOM; host or cells: CHO-K1 cells (membrane preparation)
T1 sequence (P35372 whole entry): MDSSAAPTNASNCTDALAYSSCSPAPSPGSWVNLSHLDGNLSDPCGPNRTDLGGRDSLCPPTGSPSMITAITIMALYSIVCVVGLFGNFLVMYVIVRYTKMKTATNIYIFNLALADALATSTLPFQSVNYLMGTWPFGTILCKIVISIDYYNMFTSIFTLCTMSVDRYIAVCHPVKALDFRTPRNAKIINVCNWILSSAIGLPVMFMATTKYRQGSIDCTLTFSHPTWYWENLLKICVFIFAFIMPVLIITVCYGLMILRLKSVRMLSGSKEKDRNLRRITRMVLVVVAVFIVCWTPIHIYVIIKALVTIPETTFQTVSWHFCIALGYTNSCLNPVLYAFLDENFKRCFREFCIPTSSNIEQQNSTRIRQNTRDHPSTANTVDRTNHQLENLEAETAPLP
In short: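 Scintillation proximity binding on human μ receptor membranes from CHO-K1 cells used 1 nmol/l [3H]-naloxone over 90 min at room temperature in 50 mmol/l Tris-HCl, 0.06% BSA. Percent inhibition was recorded at 1 μM.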

[1] = molecular target: T2, serotonin (5-HT) reuptake (Rattus norvegicus, UniProt P31652); experiment: Inhibition of serotonin (5HT) reuptake in synaptosomes from rat brain; type: biochemical; settings: test concentration of 10 μM; for inhibition at 10 µM: read-out: 5-HT (inhibition of reuptake of serotonin, % inhibition)
T2 construct: synaptosomes are freshly isolated from areas of the rat brain; from tissue; host or cells: rat brain synaptosomes (P2 fraction)
T2 sequence (P31652 whole entry): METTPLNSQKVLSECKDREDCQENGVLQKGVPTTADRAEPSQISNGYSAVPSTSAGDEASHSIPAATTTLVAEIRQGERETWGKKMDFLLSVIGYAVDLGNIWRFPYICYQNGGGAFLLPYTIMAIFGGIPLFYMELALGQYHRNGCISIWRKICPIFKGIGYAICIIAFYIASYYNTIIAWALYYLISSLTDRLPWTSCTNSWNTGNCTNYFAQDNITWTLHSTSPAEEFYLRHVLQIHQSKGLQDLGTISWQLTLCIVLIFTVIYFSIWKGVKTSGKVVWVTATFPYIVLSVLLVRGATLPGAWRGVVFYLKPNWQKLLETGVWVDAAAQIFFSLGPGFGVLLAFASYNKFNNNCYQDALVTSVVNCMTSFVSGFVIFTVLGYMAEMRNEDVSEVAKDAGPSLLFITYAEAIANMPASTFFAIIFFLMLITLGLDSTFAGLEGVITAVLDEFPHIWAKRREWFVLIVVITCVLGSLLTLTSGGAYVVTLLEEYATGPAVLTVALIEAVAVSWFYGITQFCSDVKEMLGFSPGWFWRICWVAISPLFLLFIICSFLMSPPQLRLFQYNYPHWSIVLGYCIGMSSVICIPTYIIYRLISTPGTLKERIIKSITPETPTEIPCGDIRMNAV
In short: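 Freshly isolated rat brain synaptosomes (P2 fraction) used for 5-HT reuptake. Test compound at 10 μM, activity given as % inhibition.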

SMILES | μ (binding on the μ opioid receptor, % inhibition) (human μ opiate receptor) [%] | 5-HT (inhibition of reuptake of serotonin, % inhibition) [1] [%] | also measured
COc1cc(C)c(S(=O)(=O)N(CCOCC(=O)NCC2CCC(C(CCc3ccccc3)N(C)C)CC2)Cc2ccccc2)c(C)c1C (stereo not shown) [Example 562] | 23 | 96 | –
COc1ccc(S(=O)(=O)N2CCCCC2COCC(=O)NCC2CCC(C(CCc3ccccc3)N(C)C)CC2)c(OC)c1 (stereo not shown) [Example 486] | – | – | μ (binding on the μ opioid receptor, % inhibition) (human μ opiate receptor; 1 µM): 36%; 5-HT (inhibition of reuptake of serotonin, % inhibition) ([1]; 10 µM): 73%
CN(C)C(CCc1ccccc1)C1CCC(CNC(=O)COCCN(C)S(=O)(=O)c2c(Cl)cccc2Cl)CC1 (stereo not shown) [Example 580] | – | – | μ (binding on the μ opioid receptor, % inhibition) (human μ opiate receptor; 1 µM): 13%; 5-HT (inhibition of reuptake of serotonin, % inhibition) ([1]; 10 µM): 77%
CN(C)C(c1ccccc1)C1CCC(NC(=O)COCCN(C)S(=O)(=O)c2c(Cl)cccc2Cl)CC1 (stereo not shown) [Example 135, 2-(2-(2,6-dichloro-N-methylphenylsulfonamido)ethoxy)-N-(4-((dimethylamino)(phenyl)methyl)cyclohexyl)acetamide] | – | – | inhibition at 1 µM (human μ opiate receptor): 89%; inhibition at 10 µM [1]: 83%
COc1ccc(S(=O)(=O)N2CCCCC2COCC(=O)NCC2CCC(C(c3ccccc3)N(C)C)CC2)c(OC)c1 (stereo not shown) [Example 106, 2-((1-(2,4-dimethoxyphenylsulfonyl)piperidin-2-yl)methoxy)-N-((4-((dimethylamino)(phenyl)methyl)cyclohexyl)methyl)acetamide] | – | – | inhibition at 1 µM (human μ opiate receptor): 92%; inhibition at 10 µM [1]: 85%
CN(C)C(c1ccc(Cl)cc1)C1CCC(CCNC(=O)COCCN(C)S(=O)(=O)c2ccc(OC(F)(F)F)cc2)CC1 (stereo not shown) [Example 575] | 11 | 77 | –
CN(C)C(CCc1ccccc1)C1CCC(CNC(=O)COC2CCN(S(=O)(=O)c3ccccc3)C2)CC1 (stereo not shown) [Example 573] | 23 | 100 | –
Cc1cc(C)c(S(=O)(=O)N(C)CCOCC(=O)NCCC2CCC(C(c3cccc(F)c3)N(C)C)CC2)c(C)c1 (stereo not shown) [Example 587] | −5 | 86 | –
CN(C)C(c1cccc(F)c1)C1CCC(CCNC(=O)COCCC2CCN(S(=O)(=O)c3ccccc3)CC2)CC1 (stereo not shown) [Example 543] | 29 | 76 | –
COc1cc(C)c(S(=O)(=O)N2CCC(OCC(=O)NCC3CCC(C(CCc4ccccc4)N(C)C)CC3)C2)c(C)c1 (stereo not shown) [Example 565] | 20 | 94 | –
CCN(CCOCC(=O)NCCC1CCC(C(c2cccs2)N(C)C)CC1)S(=O)(=O)c1c(C)cc(OC)c(C)c1C (stereo not shown) [Example 103, N-(2-(4-((dimethylamino)(thiophen-2-yl)methyl)cyclohexyl)ethyl)-2-(2-(N-ethyl-4-methoxy-2,3,6-trimethylphenylsulfonamido)ethoxy)acetamide] | – | – | inhibition at 1 µM (human μ opiate receptor): 94%; inhibition at 10 µM [1]: 95%
COc1ccc(S(=O)(=O)N2Cc3ccccc3CC2COCC(=O)NCC2CCC(C(c3cccs3)N(C)C)CC2)cc1 (stereo not shown) [Example 7, N-((4-((dimethylamino)(thiophen-2-yl)methyl)cyclohexyl)methyl)-2-((2-(4-methoxyphenylsulfonyl)-1,2,3,4-tetrahydroisoquinolin-3-yl)methoxy)acetamide] | – | – | inhibition at 1 µM (human μ opiate receptor): 99%; inhibition at 10 µM [1]: 92%
CN(C)C(c1ccc(F)cc1)C1CCC(CCNC(=O)COC2CCN(S(=O)(=O)c3ccccc3)CC2)CC1 (stereo not shown) [Example 553] | 26 | 94 | –
CN(C)C(CCc1ccccc1)C1CCC(CNC(=O)COCCN(C)S(=O)(=O)c2c(Cl)cccc2Cl)CC1 (stereo not shown) [Example 476] | – | – | μ (binding on the μ opioid receptor, % inhibition) (human μ opiate receptor; 1 µM): 47%; 5-HT (inhibition of reuptake of serotonin, % inhibition) ([1]; 10 µM): 80%
Cc1ccc(S(=O)(=O)N2CCC(OCC(=O)NCC3CCC(C(c4ccccc4)N(C)C)CC3)C2)cc1 (stereo not shown) [Example 125, N-((4-((dimethylamino)(phenyl)methyl)cyclohexyl)methyl)-2-(1-tosylpyrrolidin-3-yloxy)acetamide] | – | – | inhibition at 1 µM (human μ opiate receptor): 91%; inhibition at 10 µM [1]: 91%
CCN(CCOCC(=O)NCC1CCC(C(c2cccc(F)c2)N(C)C)CC1)S(=O)(=O)c1c(C)cc(OC)c(C)c1C (stereo not shown) [Example 117, N-((4-((dimethylamino)(3-fluorophenyl)methyl)cyclohexyl)methyl)-2-(2-(N-ethyl-4-methoxy-2,3,6-trimethylphenylsulfonamido)ethoxy)acetamide] | – | – | inhibition at 1 µM (human μ opiate receptor): 92%; inhibition at 10 µM [1]: 94%
COc1ccc(S(=O)(=O)N2CCCCC2COCC(=O)NCC2CCC(C(CCc3ccccc3)N(C)C)CC2)cc1OC (stereo not shown) [Example 559] | – | – | μ (binding on the μ opioid receptor, % inhibition) (human μ opiate receptor; 1 µM): 14%; 5-HT (inhibition of reuptake of serotonin, % inhibition) ([1]; 10 µM): 84%
CN(C)C(CCc1ccccc1)C1CCC(CNC(=O)COC2CCN(S(=O)(=O)c3ccccc3)CC2)CC1 (stereo not shown) [Example 578] | 12 | 94 | –

SMILES | μ (binding on the μ opioid receptor, % inhibition) (human μ opiate receptor) [%] | 5-HT (inhibition of reuptake of serotonin, % inhibition) [1] [%] | also measured
COc1cc(C)c(S(=O)(=O)N2CCC(CCOCC(=O)NCCC3CCC(C(c4ccc(Cl)cc4)N(C)C)CC3)CC2)c(C)c1C (stereo not shown) [Example 561] | 26 | 79 | –
CN(C)C(c1cccc(F)c1)C1CCC(CNC(=O)COCC2CCCN2S(=O)(=O)c2ccc(Cl)c(Cl)c2)CC1 (stereo not shown) [Example 119, 2-((1-(3,4-dichlorophenylsulfonyl)pyrrolidin-2-yl)methoxy)-N-((4-((dimethylamino)(3-fluorophenyl)methyl)cyclohexyl)methyl)acetamide] | – | – | inhibition at 1 µM (human μ opiate receptor): 90%; inhibition at 10 µM [1]: 96%
COc1ccc(S(=O)(=O)N(C)CCOCC(=O)NCC2CCC(C(CCc3ccccc3)N(C)C)CC2)cc1 (stereo not shown) [Example 550] | 20 | 74 | –
CN(C)C(c1ccc(Cl)cc1)C1CCC(CNC(=O)COCCC2CCN(S(=O)(=O)c3ccccc3)CC2)CC1 (stereo not shown) [Example 584] | 7 | 64 | –
COc1cc(C)c(S(=O)(=O)N(CCOCC(=O)NCC2CCC(C(c3ccc(F)cc3)N(C)C)CC2)Cc2ccccc2)c(C)c1C (stereo not shown) [Example 563] | 25 | 90 | –
CN(C)C(CCc1ccccc1)C1CCC(CNC(=O)COC2CCCN(S(=O)(=O)c3ccccc3)C2)CC1 (stereo not shown) [Example 558] | 29 | 92 | –
Cc1cc(C)c(S(=O)(=O)N(C)CCOCC(=O)NC2CCC(C(c3ccccc3)N(C)C)CC2)c(C)c1 (stereo not shown) [Example 63, N-(4-((dimethylamino)(phenyl)methyl)cyclohexyl)-2-(2-(N,2,4,6-tetramethylphenylsulfamido)ethoxy)acetamide] | 94 | 79 | –
COc1ccc(S(=O)(=O)N2CCCCC2COCC(=O)NCCC2CCC(C(c3cccc(F)c3)N(C)C)CC2)cc1OC (stereo not shown) [Example 581] | – | – | μ (binding on the μ opioid receptor, % inhibition) (human μ opiate receptor; 1 µM): 9%; 5-HT (inhibition of reuptake of serotonin, % inhibition) ([1]; 10 µM): 70%
COc1cc(C)c(S(=O)(=O)N2CCCC(OCC(=O)NCCC3CCC(C(c4cccs4)N(C)C)CC3)C2)c(C)c1C (stereo not shown) [Example 130, N-(2-(4-((dimethylamino)(thiophen-2-yl)methyl)cyclohexyl)ethyl)-2-(1-(4-methoxy-2,3,6-trimethylphenylsulfonyl)piperidin-3-yloxy)acetamide] | – | – | inhibition at 1 µM (human μ opiate receptor): 94%; inhibition at 10 µM [1]: 95%
COc1ccc(S(=O)(=O)N2CCCCC2COCC(=O)NC2CCC(C(c3ccc(F)cc3)N(C)C)CC2)cc1OC (stereo not shown) [Example 555] | 23 | 86 | –
CN(C)C(c1cccs1)C1CCC(CCNC(=O)COCCN(Cc2ccccc2)S(=O)(=O)c2ccccc2)CC1 (stereo not shown) [Example 116, 2-(2-(N-benzylphenylsulfonamido)ethoxy)-N-(2-(4-((dimethylamino)(thiophen-2-yl)methyl)cyclohexyl)ethyl)acetamide] | – | – | inhibition at 1 µM (human μ opiate receptor): 91%; inhibition at 10 µM [1]: 97%
CN(C)C(c1ccc(F)cc1)C1CCC(CCNC(=O)COCCN(C)S(=O)(=O)c2ccc(Cl)cc2Cl)CC1 (stereo not shown) [Example 586] | 3 | 73 | –
COc1ccc(S(=O)(=O)N(C)CCOCC(=O)NCC2CCC(C(CCc3ccccc3)N(C)C)CC2)cc1OC (stereo not shown) [Example 571] | 14 | 88 | –
CN(C)C(c1ccccc1)C1CCC(CNC(=O)COCCN(C)S(=O)(=O)c2ccc(Cl)cc2)CC1 (stereo not shown) [Example 110, 2-(2-(4-chloro-N-methylphenylsulfonamido)ethoxy)-N-((4-((dimethylamino) (phenyl)methyl)cyclohexyl)methyl)acetamide] | – | – | inhibition at 1 µM (human μ opiate receptor): 87%; inhibition at 10 µM [1]: 94%
CN(C)C(CCc1ccccc1)C1CCC(CNC(=O)COC2CCN(S(=O)(=O)c3ccc(Cl)cc3)C2)CC1 (stereo not shown) [Example 557] | 26 | 88 | –
COc1ccc(S(=O)(=O)N2CCCCC2COCC(=O)NCC2CCC(C(CCc3ccccc3)N(C)C)CC2)cc1OC (stereo not shown) [Example 570] | – | – | μ (binding on the μ opioid receptor, % inhibition) (human μ opiate receptor; 1 µM): 16%; 5-HT (inhibition of reuptake of serotonin, % inhibition) ([1]; 10 µM): 87%
COc1ccc(S(=O)(=O)N2CCCCC2COCC(=O)NCC2CCC(C(c3ccc(F)cc3)N(C)C)CC2)cc1OC (single isomer, unassigned) [Example 537] | – | – | μ (binding on the μ opioid receptor, % inhibition) (human μ opiate receptor; 1 µM): 35%; 5-HT (inhibition of reuptake of serotonin, % inhibition) ([1]; 10 µM): 92%
